Assays:
Irc15p [1] = target: T1, Irc15p (Saccharomyces cerevisiae, UniProt Q02733); assay: HPLC of flavin released from denatured protein; UV-Vis absorption; type: binding; settings: co-purified; lysis buffer supplemented with 10 μM FAD; one FAD per protomer
T1 construct: gene IRC15; E. coli Rosetta (DE3); ~55 kDa subunit, homodimer ~113-115 kDa, one FAD per protomer
T1 sequence (Q02733 1-499): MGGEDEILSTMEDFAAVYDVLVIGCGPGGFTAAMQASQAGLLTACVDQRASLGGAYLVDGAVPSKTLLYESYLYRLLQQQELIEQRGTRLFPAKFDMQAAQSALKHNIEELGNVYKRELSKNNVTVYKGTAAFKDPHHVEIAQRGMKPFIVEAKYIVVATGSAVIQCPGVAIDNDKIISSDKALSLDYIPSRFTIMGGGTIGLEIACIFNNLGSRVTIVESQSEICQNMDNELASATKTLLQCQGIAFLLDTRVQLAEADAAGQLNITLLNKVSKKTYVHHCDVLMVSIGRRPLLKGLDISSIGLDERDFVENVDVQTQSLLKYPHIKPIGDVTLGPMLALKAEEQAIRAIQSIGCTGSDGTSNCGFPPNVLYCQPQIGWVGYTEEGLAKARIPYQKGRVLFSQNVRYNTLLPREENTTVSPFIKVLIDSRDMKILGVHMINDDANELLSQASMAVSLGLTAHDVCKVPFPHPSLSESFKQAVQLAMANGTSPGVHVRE

Irc15p [2] = target: T1, Irc15p; assay: thermal shift assay (SYPRO Orange); type: binding; settings: 50 mM HEPES, 50 mM NaCl, 1 mM DTT, pH 7.0, absolute Tm, compare ligand-free control in the 4th table, row 3
Text: thermal shift assay (SYPRO Orange) on Irc15p

Irc15p [3] = target: T1, Irc15p; assay: stopped-flow reductive half-reaction, flavin absorption at […] nm, hyperbolic fit of rate; type: biochemical; settings: anoxic; 50 mM HEPES, 50 mM NaCl, 1 mM DTT, pH 7.0; 4 °C; pre-steady-state; read-out: dissociation constant
[4] = target: the molecule itself; assay: SEC; analytical size exclusion chromatography, Superdex 200 10/300 GL, buffer A (50 mM HEPES, 150 mM NaCl, 1 mM DTT, pH 7.0), calibrated with molecular mass standards; elution monitored at 280 and 450 nm

Cc1cc2nc3c(=O)[nH]c(=O)nc-3n(C[C@H](O)[C@H](O)[C@H](O)COP(=O)(O)OP(=O)(O)OC[C@H]3O[C@@H](n4cnc5c(N)ncnc54)[C@H](O)[C@@H]3O)c2cc1C [FAD]
HPLC of flavin released from denatured protein; UV-Vis absorption (Irc15p [1]): closely corresponding to the retention time of authentic FAD

NC(=O)C1=CN([C@@H]2O[C@H](COP(=O)(O)OP(=O)(O)OC[C@H]3O[C@@H](n4cnc5c(N)ncnc54)[C@H](O)[C@@H]3O)[C@@H](O)[C@H]2O)C=CC1 [NADH]
T m [°C] (Irc15p [2]; 50 mM NADH, ligand reduces the FAD): 47 °C | Kd (Irc15p [3]): 100 ± 5 µM

NC(=O)c1ccc[n+]([C@@H]2O[C@H](COP(=O)(O)OP(=O)(O)OC[C@H]3O[C@@H](n4cnc5c(N)ncnc54)[C@H](O)[C@@H]3O)[C@@H](O)[C@H]2O)c1 [NAD^+]
T m [°C] (Irc15p [2]; 50 mM NAD+): 64 °C

NC(=O)C1=CN([C@@H]2O[C@H](COP(=O)(O)OP(=O)(O)OC[C@H]3O[C@@H](n4cnc5c(N)ncnc54)[C@H](OP(=O)(O)O)[C@@H]3O)[C@@H](O)[C@H]2O)C=CC1 [NADPH]
T m [°C] (Irc15p [2]; 50 mM NADPH, ligand reduces the FAD): 45 °C

B1: Irc15p (increased recombination centers 15) (enzyme, S. cerevisiae, UniProt Q02733 1-499, looked up)
chain: MGGEDEILSTMEDFAAVYDVLVIGCGPGGFTAAMQASQAGLLTACVDQRASLGGAYLVDGAVPSKTLLYESYLYRLLQQQELIEQRGTRLFPAKFDMQAAQSALKHNIEELGNVYKRELSKNNVTVYKGTAAFKDPHHVEIAQRGMKPFIVEAKYIVVATGSAVIQCPGVAIDNDKIISSDKALSLDYIPSRFTIMGGGTIGLEIACIFNNLGSRVTIVESQSEICQNMDNELASATKTLLQCQGIAFLLDTRVQLAEADAAGQLNITLLNKVSKKTYVHHCDVLMVSIGRRPLLKGLDISSIGLDERDFVENVDVQTQSLLKYPHIKPIGDVTLGPMLALKAEEQAIRAIQSIGCTGSDGTSNCGFPPNVLYCQPQIGWVGYTEEGLAKARIPYQKGRVLFSQNVRYNTLLPREENTTVSPFIKVLIDSRDMKILGVHMINDDANELLSQASMAVSLGLTAHDVCKVPFPHPSLSESFKQAVQLAMANGTSPGVHVRE
notes: The forward primer carries the start ATG; Homodimer with one FAD per protomer; this was read from the printed primers; source: E. coli Rosetta (DE3), pET21d(+)IRC15, purified (Ni-NTA HisTrap HP; for SAXS also size exclusion chromatography)
stoichiometry N [4]: 2

From article PMC6296175, “Oxidative stress‐induced structural changes in the microtubule‐associated flavoenzyme Irc15p from Saccharomyces cerevisiae” (Protein Science : A Publication of the Protein Society, 2018)
